The values that follow come from PubChem BioAssay (NCI).

Among the test systems are LOX IMVI melanoma; U251 CNS; IGROV1 ovarian; TK-10 renal; UACC-257 melanoma; HT29 colon; SN12C renal; NCI-H522 lung; SF-539 CNS; ACHN renal.
Holding throughout (assay): NCI tumour cell line growth inhibition, 48 h

Each structure is given as a SMILES string. Where “and” joins values, the source holds several entries; their conditions need not be identical. Identical values can stand only once.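 Protocol summary: plate cells (96-well), add compound at 5 concentrations, incubate 48 h, interpolate endpoints linearly. GI50 marks 50% less growth. TGI denotes the concentration required for complete inhibition of growth.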

With `O=C1N[C@H]2[C@H](O)[C@H](O)[C@@H](O)[C@H](O)[C@@H]2c2cc3c(c(O)c21)OCO3`, the GI50 is 0.147 µM and 0.196 µM in the assay with LOX IMVI melanoma; 0.156 µM and 0.187 µM with U251 CNS; 0.349 µM and 0.757 µM with IGROV1 ovarian; 0.0561 µM in the assay on TK-10 renal; 0.314 µM and 0.339 µM in the assay with UACC-257 melanoma; 0.3 µM and 0.36 µM with HT29 colon. The GI50 in the assay with SN12C renal was 0.206 µM and 0.246 µM; with NCI-H522 lung, 0.143 µM. Further, the TGI in the assay with TK-10 renal was 3.55 µM and 1.69 µM; with UACC-257 melanoma, 2.4 µM and 0.334 µM; in the assay with HT29 colon, 3.84 µM and 0.44 µM; with SN12C renal it was 2.11 µM and 0.28 µM; in the assay on NCI-H522 lung, 0.886 µM and 0.141 µM.

Consider `COc1cc2ccc(CC(N)=O)cc2cc1OC`, for which the TGI with SF-539 CNS, in the assay on LOX IMVI melanoma, in the assay with U251 CNS, in the assay on IGROV1 ovarian, in the assay on TK-10 renal and in the assay on UACC-257 melanoma was over 100 µM each time. Further, the TGI in the assay with HT29 colon, in the assay on SN12C renal and in the assay with NCI-H522 lung was over 100 µM in each case.

Consider `CN(C)CCNc1nc2ccccc2c2occc12`, for which the GI50 is 35.9 µM in the assay with SF-539 CNS; 19.1 µM with LOX IMVI melanoma; 45.3 µM in the assay with U251 CNS; 34.1 µM with IGROV1 ovarian; 60.5 µM in the assay on TK-10 renal; 28.9 µM with UACC-257 melanoma. Moreover, the values for the GI50 with SN12C renal, in the assay with NCI-H522 lung and in the assay on ACHN renal were 27.7 µM, 62.3 µM and 28.2 µM, respectively. In addition, the TGI in the assay on SF-539 CNS is 83.6 µM; with LOX IMVI melanoma, 42.8 µM; in the assay on U251 CNS it was over 100 µM; in the assay on IGROV1 ovarian, 89.6 µM; in the assay with TK-10 renal, over 100 µM; in the assay with UACC-257 melanoma it was 68.2 µM. Further, the TGI was 82.5 µM with SN12C renal, over 100 µM in the assay with NCI-H522 lung and 85.8 µM with ACHN renal.

Consider `CC12CCC(O)CC1=CCC1C2CCC2(C)C(c3cccnc3)=CCC12` (centres undefined), for which the GI50 in the assay with SF-539 CNS is over 100 µM; in the assay on LOX IMVI melanoma, over 100 µM; in the assay on U251 CNS it was 70.1 µM; with IGROV1 ovarian, over 100 µM; with TK-10 renal it was over 100 µM; in the assay with HT29 colon it was 82.2 µM. The GI50 with SN12C renal, with NCI-H522 lung and with ACHN renal was over 100 µM in each case. In addition, the TGI in the assay with SF-539 CNS, with LOX IMVI melanoma, with U251 CNS, in the assay with IGROV1 ovarian, in the assay on TK-10 renal and in the assay on HT29 colon was over 100 µM in each case. For the same compound, the TGI in the assay with SN12C renal, in the assay with NCI-H522 lung and in the assay on ACHN renal was over 100 µM in each case.

Regarding `COc1ccc2[nH]c(O)c(/C=c3/ccc4c(c3)N=C(c3ccc(F)cc3)N=4)c2c1`, the GI50 with SF-539 CNS was 3.83 µM; with LOX IMVI melanoma it was 2.92 µM; in the assay on U251 CNS, 3.65 µM; in the assay on IGROV1 ovarian, 3.27 µM; in the assay with TK-10 renal it was 3.01 µM; in the assay on UACC-257 melanoma, 3.92 µM. Besides, the values for the GI50 with HT29 colon, in the assay with SN12C renal and with NCI-H522 lung were 3.62 µM, 4.88 µM and 2.79 µM, respectively. Further, the TGI with SF-539 CNS was 23.7 µM; in the assay with LOX IMVI melanoma, over 100 µM; with U251 CNS, 30.8 µM; in the assay with IGROV1 ovarian, 17.9 µM; in the assay on TK-10 renal it was 7.12 µM; with UACC-257 melanoma, 15.3 µM. In addition, the TGI with HT29 colon was 16.8 µM; in the assay on SN12C renal, over 100 µM; with NCI-H522 lung, 8.09 µM.

With `Cc1cn2c(/C=N/N=C(N)N)c(-c3ccsc3)nc2s1`, the GI50 in the assay with LOX IMVI melanoma was 1.6 µM; with U251 CNS, 2.08 µM; with IGROV1 ovarian, 14.9 µM; in the assay with TK-10 renal, 13.4 µM; with UACC-257 melanoma, 18.7 µM; in the assay with HT29 colon it was 18.6 µM. In addition, the GI50 in the assay on SN12C renal was 2.27 µM; with NCI-H522 lung, 28.4 µM; in the assay with ACHN renal it was 3.08 µM. Further, the TGI with LOX IMVI melanoma is 3.35 µM; in the assay on U251 CNS, 5.95 µM; in the assay with IGROV1 ovarian it was 46.3 µM; in the assay with TK-10 renal, 27.5 µM; with UACC-257 melanoma, 35 µM; with HT29 colon, over 100 µM. For the same compound, the TGI in the assay with SN12C renal was 10.9 µM; in the assay with NCI-H522 lung, over 100 µM; in the assay with ACHN renal it was 13.6 µM.

Turning to `O=C(COc1ccc(-c2nc3cc(Cl)c(Cl)cc3[nH]2)cc1)N=Nc1c(O)[nH]c2ccccc12`, the GI50 in the assay with SF-539 CNS is 2.65 µM; in the assay with LOX IMVI melanoma it was 1.02 µM; in the assay with U251 CNS it was 0.564 µM; in the assay with IGROV1 ovarian it was 3.13 µM; in the assay on TK-10 renal, over 33.1 µM; in the assay on HT29 colon, 1.14 µM. In addition, the GI50 was 3.85 µM with SN12C renal, 2.55 µM in the assay on NCI-H522 lung and 3.71 µM in the assay with ACHN renal. Also, the TGI is 24.2 µM with SF-539 CNS; 2.64 µM with LOX IMVI melanoma; 2.1 µM in the assay with U251 CNS; over 53.3 µM in the assay on IGROV1 ovarian; over 58.5 µM in the assay on TK-10 renal; over 100 µM in the assay with HT29 colon. The TGI in the assay on SN12C renal, in the assay on NCI-H522 lung and with ACHN renal was over 100 µM throughout.

`Cc1ccc2c(CC(=O)O)cc(=O)oc2c1`: the TGI with SF-539 CNS, in the assay with LOX IMVI melanoma, in the assay on U251 CNS, in the assay on IGROV1 ovarian, in the assay with TK-10 renal and with HT29 colon was over 100 µM throughout. The TGI in the assay with SN12C renal, with NCI-H522 lung and in the assay with ACHN renal was over 100 µM each time.

Turning to `O=S(=O)(NCCO)c1cc[c]([Sb](=[O])([OH])[OH])cc1`, the GI50 with LOX IMVI melanoma, in the assay on U251 CNS, in the assay with IGROV1 ovarian, in the assay on TK-10 renal, in the assay with UACC-257 melanoma and in the assay with HT29 colon was over 100 µM throughout. Besides, the GI50 in the assay on SN12C renal, in the assay on NCI-H522 lung and with ACHN renal was over 100 µM throughout. Further, the TGI in the assay on LOX IMVI melanoma, in the assay on U251 CNS, in the assay with IGROV1 ovarian, in the assay with TK-10 renal, with UACC-257 melanoma and in the assay on HT29 colon was over 100 µM throughout. In addition, the TGI in the assay with SN12C renal, in the assay with NCI-H522 lung and with ACHN renal was over 100 µM throughout.
